Values of other authors, collected in patent US20200038413A1, “METHODS OF TREATING PARKINSON'S DISEASE USING AMINOSTEROL COMPOSITIONS” (Enterin, Inc., priority 2018, published 2020).
Structures can show the parent of a compound that is named as a salt.

Legend:
PD population = settings: short term placebo controlled trial, PD constipation; cited from earlier work
[1] = single and repeat intravenous administration, alone or in combination; cited from earlier work

| Structure (SMILES) | proportion of those treated in whom effective (PD population) | well tolerated dose [1] |
| --- | --- | --- |
| CCCCC(F)(F)[C@@]1(O)CC[C@H]2[C@@H](CC(=O)[C@@H]2CCCCCCC(=O)O)O1 [Lubiprostone] | about 50% | – |
| CC(C)[C@@H](CC[C@@H](C)[C@H]1CC[C@H]2[C@@H]3[C@H](O)C[C@H]4C[C@@H](NCCCNCCCCN)CC[C@]4(C)[C@H]3CC[C@]12C)OS(=O)(=O)O [Squalamine dilactate salt] | – | at least 300 mg/m^2 |
